Several values for one entry are separate records, joined by “and”; a condition that tells them apart may be missing. Equal entries are not always repeated.
Tests used:
α-glucosidase I and II = details: cited from earlier work
GSL synthesis = details: compared with NB-DNJ; cited from earlier work
[1] = Serum enzyme activity and half life of Ceredase after i.v. injection in mice, with or without NB-DNJ pre-treatment; assay type: in vivo; design: unit not given here; details: mice treated with NB-DNJ 4800 mg/kg/day for 5 weeks
Protocol: A group of mice were treated with NB-DNJ at 4800 mg/kg/day for 5 weeks. After a low intravenous dose (5-10 U/kg) of Ceredase™ (Genzyme Corporation) administered as a single injection via the tail vein, serum enzyme activity was measured by taking sequential serum samples from the tail vein to monitor enzyme activity over time. Ceredase™ is a modified form of β glucocerebrosidase.

Sandhoff mice = test: Survival of Sandhoff mice treated with NB-DNJ and/or bone marrow transplantation; assay type: in vivo; details: BMT at two weeks of age, NB-DNJ 600 mg/kg/day from 9.5-11 weeks of age
MPS IIIA mice = test: Murine model of MPS IIIA: brain immunocytochemistry (GM2, GM3) and auto-fluorescent material; assay type: in vivo
Text: Colonies of mutant mice expressing the MPS IIIA phenotype have been described, and have been validated by a number of criteria as an authentic model of the disease (Stanley, P et al (1999) Glycobiology 9: 1389-1396). MPS IIIA mice display clinical signs of the disease around 6 months of age with decreased activity, scruffy coat, abdominal distention, hunched posture and waddling gait. […] Death results by 18 months or less.
The brains of MPS mice are grossly normal. […] White matter and Purkinje cells display axonal spheroids. Anti-heparan sulfate immunostaining indicates accumulation of heparan sulfate fragments in the cerebral cortex of MPS IIIA animals.
MPS IIIA mice were treated with 1200 mg/kg/day, beginning at 4 weeks of age, with NB-DNJ. Brain samples from animals were taken at 8 weeks of age (4 weeks of treatment with NB-DNJ) and subjected to immunocytochemistry with an anti-GM2 ganglioside-specific monoclonal antibody. […] Upper cortex, ii. Lower cortex; B: NB-DNJ Treated, i. Upper cortex, ii. Lower cortex.
The hippocampus (CA4-Dentate Gyrus) of the MPS IIIA animals was also examined for staining by a GM2 Ganglioside-specific monoclonal antibody.
Cerebral cortex samples from animals were also taken at 40 weeks of age (36 weeks of treatment with NB-DNJ) and subjected to immunocytochemistry with an anti-GM3 ganglioside-specific monoclonal antibody. Anti-GM2 staining was similar to anti-GM3 staining in both treated and untreated animals, respectively (data not shown).
The brains of animals affected by MPS IIIA, as well as some other of the mucopolysaccharidoses, store heterogeneous auto-fluorescent material in addition to glycolipids. Thus, the cerebral cortex of MPS IIIA animals either left untreated or treated for 36 weeks with NB-DNJ were also examined for the presence of auto-fluorescent material.

[2] = test system: mouse model of Tay-Sachs disease; details: asymptomatic Tay-Sachs mouse model; cited from earlier work
[3] = test system: in vitro model of Gaucher disease; details: cited from earlier work

Row | Compound | Inhibition of α-glucosidase I and II (α-glucosidase I and II) | Inhibition of GSL synthesis in vitro (GSL synthesis) | Peak Activity of Ceredase in serum, mean ± sem ([1]; Ceredase 5-10 U/kg i.v., group mean) | Peak Activity of Ceredase in serum ([1]; Ceredase 5-10 U/kg single i.v. injection, individual mice) | Survival (longest survivor) (Sandhoff mice) | Pathological features in the model of MPS IIIA (MPS IIIA mice; NB-DNJ 1200 mg/kg/day) | Glycolipid storage in neuronal cells (MPS IIIA mice; NB-DNJ 1200 mg/kg/day from 4 weeks of age, anti-GM2/GM3 immunocytochemistry) | Storage of auto-fluorescent material in cerebral cortex (MPS IIIA mice; NB-DNJ 1200 mg/kg/day, 36 weeks of treatment) | GM2 accumulation in the brain and associated neuropathology [2] | Storage in in vitro model of Gaucher disease [3]
1 | CCCCN1C[C@H](O)[C@@H](O)[C@@H](O)[C@H]1CO [NB-DGJ, N-butyldeoxygalactonojirimycin] | does not inhibit | as effectively as NB-DNJ |  |  |  |  |  |  |  | 
2 | CCCCN1C[C@H](O)[C@@H](O)[C@H](O)[C@H]1CO [NB-DNJ, N-butyldeoxynojirimycin] |  |  | 27.4 ± 7.2 | 13.9 and 32.1 and 24.1 and 13.1 and 21.0 and 68.3 and 19.2 | 170 days | markedly reduces the pathological features | markedly reduced | reduced the storage of auto-fluorescent material | reduce GM2 accumulation in the brain and prevent the neuropathology | shown to prevent storage
